Measured values published in US20130338574A1, “ORAL MEDICINAL COMPOSITION FOR PATIENTS UNDERGOING PERITONEAL DIALYSIS AND METHOD FOR USING SAME” (TOKAI UNIVERSITY EDUCATIONAL SYSTEM, priority 2010, published 2013).

What was measured:
[1] = tested on: dicarbonyl compounds (3-deoxyglucosone) in the intraperitoneal fluid; test: 3-deoxyglucosone in intraperitoneal fluid of uremic rat models, neutral peritoneal dialysis fluid (Experimental Example 3); type: in vivo, rats; settings: oral 30 mg/rat/day, 7 days
Description: Kidney subtotal excision rats with chronic renal failure (uremic rat models) were produced in the same manner as in Experimental Example 2. Distilled water for injection was orally administered compulsorily to Group 1 (control group) (n=3) once a day, and the pyridoxamine salt aqueous solution was orally administered compulsorily to Group 2 (pyridoxamine salt orally administered group) once a day. On the 6th day of administration, after distilled water for injection and the pyridoxamine salt aqueous solution were orally administered, respectively, to Groups 1 and 2, 20 ml of a neutral peritoneal dialysis fluid (pH 6.5 to 7.5) to be mixed before use (trade name: Dianeal (registered trademark)-N PD-4-1.5 mixture; Baxter Limited) (Table 1) was injected intraperitoneally to both groups, in place of the acid peritoneal dialysis fluid administered in Experimental Example 2. As explained in Experimental Example 1, the peritoneal dialysis fluid was composed of an upper-compartment solution and a lower-compartment solution separated by a partition, and both solutions were mixed immediately before being injected into the peritoneal cavity. […] The concentration of dicarbonyl compounds (3-deoxyglucosone) in the intraperitoneal fluid of each group was measured by HPLC in the same manner as in Experimental Example 2.

[2] = Transfer of pyridoxamine into blood and peritoneal cavity after oral administration to uremic rat models; type: in vivo, Sprague-Dawley male rats; settings: oral 30 mg/rat/day, 7 days
Description: The uremic rat models were produced using 7-week-old (body weight: 300 g or less) Sprague-Dawley male rats (CLEA Japan, Inc.) by the method described in NPL 27 and NPL 28. More specifically, the above rats were first subjected to 1/3 nephrectomy under anesthesia, and then to 1/2 nephrectomy after a week, thereby producing 5/6 nephrectomy rats (rats with kidney subtotal excision). These rats were allowed to freely take a standard diet for experimental rats (containing 1.06% calcium, 0.9% phosphate, and 21% protein; CE2: CLEA Japan, Inc.) and tap water until the eve of slaughter.
The kidney subtotal excision rats with chronic renal failure (uremic rat models) produced in the above manner were separated into two groups (each group: n=3). Distilled water for injection (Otsuka Pharmaceutical Co., Ltd.; here and below) was orally administered compulsorily to Group 1 (control group) once a day, while a pyridoxamine salt aqueous solution prepared by dissolving 30 mg of pyridoxamine dihydrochloride (Sigma; here and below) in 2 mL of distilled water for injection was orally administered compulsorily to Group 2 (pyridoxamine salt orally administered group) once a day. On the 6th day of administration, after distilled water for injection and the pyridoxamine salt aqueous solution were orally administered, respectively, to Groups 1 and 2, 20 ml of a peritoneal dialysis fluid (pH 4.5 to 5.5) (trade name: Dianeal (registered trademark) PD-4 4.25; Baxter Limited) was injected intraperitoneally to both groups.
Subsequently, on the 7th day of administration, as normal, distilled water for injection was orally administered compulsorily to Group 1, and the pyridoxamine salt aqueous solution was orally administered compulsorily to Group 2. […]
When the quantitative analysis of pyridoxamine and dicarbonyl compounds (3-deoxyglucosone) in the samples was performed by liquid chromatography (HPLC), the above frozen test samples (serum and intraperitoneal fluid) were used after natural thawing at room temperature.
First, 50 μL of each test sample (serum and intraperitoneal fluid) was taken in a test tube. […] Subsequently, the mixture was subjected to centrifugation at 12,000 rpm at 4° C. for 10 minutes to precipitate proteins, and the supernatant was then collected for use as a sample for pyridoxamine quantitative analysis by HPLC.
The quantitative analysis of pyridoxamine was carried out under the HPLC conditions described in Experimental Example 1 (2). The quantitative analysis was performed using a standard calibration curve previously prepared by measurement under the above HPLC conditions using standard solutions of pyridoxamine of known concentrations.

[3] = within an hour after last administration, Dianeal PD-4 4.25 i.p. on 6th day

Pyridoxamine amount in intraperitoneal fluid ([2]; amount in 20.8 ml of collected intraperitoneal fluid): 321 µg
pyridoxamine concentration in the intraperitoneal cavity, Group 2 relative to Group 1 (control) [2]: ≥ 65 times
Pyridoxamine concentration in intraperitoneal fluid [2, 3]: 14.7 µg/mL
Pyridoxamine concentration in serum [2, 3]: 13.8 µg/mL
Structure (SMILES): Cc1ncc(CO)c(CN)c1O.Cl.Cl [pyridoxamine dihydrochloride, Pyridoxamine dihydrochloride]
3-deoxyglucosone concentration in the peritoneal cavity relative to control group ([1]; neutral peritoneal dialysis fluid): less than one-half
3-deoxyglucosone concentration in intraperitoneal fluid ([1]; neutral peritoneal dialysis fluid (pH 6.5 to 7.5) Dianeal-N PD-4-1.5 mixture, 20 ml i.p., control group 23.4): 10.3 µg/mL
